Where only a bound is given, the exact number is not on record here.

This assay can be described thus: Concentration required to achieve 50% protection of MT-4 cell from the HIV-1 induced cytopathogenicity was determined by the MTT method.
The term EC50 denotes the concentration that produces a half-maximal response. On to `CC(COc1ccccc1)OC(=S)N(C(=O)c1ccco1)c1ccccc1` (centres undefined) [(Furan-2-carbonyl)-phenyl-thiocarbamic acid O-(1-methyl-2-phenoxy-ethyl) ester], for which the EC50 amounted to 1.3 µM.
`O=C(c1ccco1)N(C(=S)OCCOc1ccccc1)c1ccccc1` [(Furan-2-carbonyl)-phenyl-thiocarbamic acid O-(2-phenoxy-ethyl) ester] registered a concentration giving a half-maximal response (EC50) of 8.4 µM.
The figure for `O=C(c1ccco1)N(C(=S)OCCc1ccccc1)c1ccccc1` [(Furan-2-carbonyl)-phenyl-thiocarbamic acid O-phenethyl ester] is 4.3 µM; for `O=C1c2ccccc2C(=O)N1CCOC(=S)N(C(=O)c1cccs1)c1cccc(C(F)(F)F)c1` [(Thiophene-2-carbonyl)-(3-trifluoromethyl-phenyl)-thiocarbamic acid O-[2-(1,3-dioxo-1,3-dihydro-isoindol-2-yl)-ethyl] ester] it is 11 µM; for `Cc1cccc(N(C(=O)c2cccs2)C(=S)OCCN2C(=O)c3ccccc3C2=O)c1` [(Thiophene-2-carbonyl)-m-tolyl-thiocarbamic acid O-[2-(1,3-dioxo-1,3-dihydro-isoindol-2-yl)-ethyl] ester] it is 10 µM.
The compound `Cc1ccccc1N(C(=O)c1cccs1)C(=S)OCCN1C(=O)c2ccccc2C1=O` [(Thiophene-2-carbonyl)-o-tolyl-thiocarbamic acid O-[2-(1,3-dioxo-1,3-dihydro-isoindol-2-yl)-ethyl] ester] returned an EC50 of 11 µM.
`Cc1ccc(N(C(=O)c2cccs2)C(=S)OCCN2C(=O)c3ccccc3C2=O)cc1` [(Thiophene-2-carbonyl)-p-tolyl-thiocarbamic acid O-[2-(1,3-dioxo-1,3-dihydro-isoindol-2-yl)-ethyl] ester] yielded a 50% effective concentration (EC50) of 0.4 µM.
In turn, `CC(=O)Oc1ccccc1C(=O)N(C(=S)OCCOc1ccccc1)c1ccccc1` [Acetic acid 2-(2-phenoxy-ethoxythiocarbonyl)-phenyl-aminocarbonyl)-phenyl ester] returned a 50% effective concentration (EC50) of 9.5 µM.
Take `O=C1c2ccccc2C(=O)N1CCOC(=S)N(C(=O)c1ccccc1)c1ccc(Br)cc1` [Benzoyl-(4-bromo-phenyl)-thiocarbamic acid O-[2-(1,3-dioxo-1,3-dihydro-isoindol-2-yl)-ethyl] ester]: it took 0.035 µM to reach a half-maximal effect (EC50).
For `O=C(c1ccccc1)N(C(=S)OCCOc1ccccc1)c1ccc(F)cc1` [Benzoyl-(4-fluoro-phenyl)-thiocarbamic acid O-(2-phenoxy-ethyl) ester], the half-maximal effective concentration (EC50) worked out at 4 µM.
Consider `O=C(c1ccccc1)N(C(=S)OCCOc1ccccc1)C1CCCCC1` [Benzoyl-cyclohexyl-thiocarbamic acid O-(2-phenoxy-ethyl) ester], for which the response was half-maximal at 200 µM (EC50).
Under `CC(COc1ccccc1)OC(=S)N(C(=O)c1ccccc1)c1ccccc1` (centres undefined) [Benzoyl-phenyl-thiocarbamic acid O-(1-methyl-2-phenoxy-ethyl) ester] stands 1.3 µM; under `O=C(c1ccccc1)N(C(=S)OCCOc1ccccc1)c1ccccc1` [Benzoyl-phenyl-thiocarbamic acid O-(2-phenoxy-ethyl) ester], 8 µM; under `O=C(c1ccccc1)N(C(=S)OCCSc1ccccc1)c1ccccc1` [Benzoyl-phenyl-thiocarbamic acid O-(2-phenylsulfanyl-ethyl) ester], > 44 µM.
`O=C1c2ccccc2C(=O)N1CCOC(=S)N(C(=O)c1ccccc1)c1ccccc1` [Benzoyl-phenyl-thiocarbamic acid O-[2-(1,3-dioxo-1,3-dihydro-isoindol-2-yl)-ethyl] ester] had a half-maximal effective concentration (EC50) of 0.4 µM.
Regarding `O=C(c1ccccc1)N(C(=S)OCc1ccco1)c1ccccc1` [Benzoyl-phenyl-thiocarbamic acid O-furan-2-ylmethyl ester], the concentration giving a half-maximal response (EC50) was > 38.3 µM.
The compound `O=C(c1ccccc1)N(C(=S)OCCc1ccccc1)c1ccccc1` [Benzoyl-phenyl-thiocarbamic acid O-phenethyl ester] returned a concentration giving a half-maximal response (EC50) of 4.2 µM.
Compound `S=C(NCCc1ccccn1)Nc1ccc(Br)cn1` [N-(2-(2-Pyridylethyl))-N -(2-(5-bromopyridyl))thiourea] came in with a 50% effective concentration (EC50) of 0.02 µM. Compared with the last compound, the EC50 is about 210-fold lower.
For the compound `O=C1c2ccccc2C(=O)N1CCOC(=S)N(C(=O)c1ccc(Cl)cc1)c1ccc(Cl)cc1` [O-2-(1,3-dioxoisoindolin-2-yl)ethyl 4-chlorobenzoyl(4-chlorophenyl)carbamothioate], the EC50 amounted to 0.025 µM.
The compound `O=C1c2ccccc2C(=O)N1CCOC(=S)N(C(=O)c1ccco1)c1ccc(Cl)cc1` [O-2-(1,3-dioxoisoindolin-2-yl)ethyl 4-chlorophenyl(furan-2-carbonyl)carbamothioate] returned an EC50 of 0.007 µM.
The compound `O=C1c2ccccc2C(=O)N1CCOC(=S)N(C(=O)c1ccccc1)c1ccc(Cl)cc1` [O-2-(1,3-dioxoisoindolin-2-yl)ethyl benzoyl(4-chlorophenyl)carbamothioate] displayed an EC50 of 0.1 µM.
Take `CC(COc1ccccc1)OC(=S)N(C(=O)Oc1ccccc1)c1ccccc1` (centres undefined) [O-(1-methyl-2-phenoxyethyl) O-phenyl phenylimidothiodicarbonate]: the EC50 was > 200 µM.
Under `CCCOC(=O)N(C(=S)OC(C)COc1ccccc1)c1ccccc1` (centres undefined) [O-(1-methyl-2-phenoxyethyl) O-propyl phenylimidothiodicarbonate] stands 131 µM.
Take `CCCCOC(=O)N(C(=S)OC(C)COc1ccccc1)c1ccccc1` (centres undefined) [O-butyl O-(1-methyl-2-phenoxyethyl) phenylimidothiodicarbonate]: the EC50 turned out to be 47 µM. This EC50 lies about 2.8-fold lower than the previous one.
`COc1cc(C(=O)N(C(=S)OCCOc2ccccc2)c2ccccc2)cc(OC)c1OC` [Phenyl-(3,4,5-trimethoxy-benzoyl)-thiocarbamic acid O-(2-phenoxy-ethyl) ester] displayed a half-maximal effective concentration (EC50) of 9.6 µM.
For `O=C(/C=C/c1ccccc1)N(C(=S)OCCOc1ccccc1)c1ccccc1` [Phenyl-(3-phenyl-acryloyl)-thiocarbamic acid O-(2-phenoxy-ethyl) ester], the EC50 came out at 7.7 µM.
`O=C(/C=C/c1ccccc1)N(C(=S)OCCc1ccccc1)c1ccccc1` [Phenyl-(3-phenyl-acryloyl)-thiocarbamic acid O-phenethyl ester] yielded a 50% effective concentration (EC50) of 4.5 µM.
`CC(COc1ccccc1)OC(=S)N(C(=O)c1cccs1)c1ccccc1` (centres undefined) [Phenyl-(thiophene-2-carbonyl)-thiocarbamic acid O-(1-methyl-2-phenoxy-ethyl) ester] returned a half-maximal effective concentration (EC50) of 2 µM.
`O=C(c1cccs1)N(C(=S)OCCOc1ccccc1)c1ccccc1` [Phenyl-(thiophene-2-carbonyl)-thiocarbamic acid O-(2-phenoxy-ethyl) ester] displayed an EC50 of 8.6 µM. This EC50 lies about 4.3-fold higher than the previous one.

Values taken from BindingDB's records for doi:10.1021/jm0209984 (Universit&#224, 2003).
